Reference: ChEMBL document CHEMBL2074409, “P-glycoprotein plays a role in the oral absorption of BMS-387032, a potent cyclin-dependent kinase 2 inhibitor, in rats” (Cancer Chemother Pharmacol, 2004)

Biological target: ATP-dependent translocase ABCB1 (Homo sapiens, UniProt P08183)
Experiment: TP_TRANSPORTER: transepithelial transport of BMS387032 at a concentration of 200uM in Caco-2 cells
Assay type: functional, cell-based
Details: caco-2, 200 µM

ATP-dependent translocase ABCB1, sequence (P08183 whole entry): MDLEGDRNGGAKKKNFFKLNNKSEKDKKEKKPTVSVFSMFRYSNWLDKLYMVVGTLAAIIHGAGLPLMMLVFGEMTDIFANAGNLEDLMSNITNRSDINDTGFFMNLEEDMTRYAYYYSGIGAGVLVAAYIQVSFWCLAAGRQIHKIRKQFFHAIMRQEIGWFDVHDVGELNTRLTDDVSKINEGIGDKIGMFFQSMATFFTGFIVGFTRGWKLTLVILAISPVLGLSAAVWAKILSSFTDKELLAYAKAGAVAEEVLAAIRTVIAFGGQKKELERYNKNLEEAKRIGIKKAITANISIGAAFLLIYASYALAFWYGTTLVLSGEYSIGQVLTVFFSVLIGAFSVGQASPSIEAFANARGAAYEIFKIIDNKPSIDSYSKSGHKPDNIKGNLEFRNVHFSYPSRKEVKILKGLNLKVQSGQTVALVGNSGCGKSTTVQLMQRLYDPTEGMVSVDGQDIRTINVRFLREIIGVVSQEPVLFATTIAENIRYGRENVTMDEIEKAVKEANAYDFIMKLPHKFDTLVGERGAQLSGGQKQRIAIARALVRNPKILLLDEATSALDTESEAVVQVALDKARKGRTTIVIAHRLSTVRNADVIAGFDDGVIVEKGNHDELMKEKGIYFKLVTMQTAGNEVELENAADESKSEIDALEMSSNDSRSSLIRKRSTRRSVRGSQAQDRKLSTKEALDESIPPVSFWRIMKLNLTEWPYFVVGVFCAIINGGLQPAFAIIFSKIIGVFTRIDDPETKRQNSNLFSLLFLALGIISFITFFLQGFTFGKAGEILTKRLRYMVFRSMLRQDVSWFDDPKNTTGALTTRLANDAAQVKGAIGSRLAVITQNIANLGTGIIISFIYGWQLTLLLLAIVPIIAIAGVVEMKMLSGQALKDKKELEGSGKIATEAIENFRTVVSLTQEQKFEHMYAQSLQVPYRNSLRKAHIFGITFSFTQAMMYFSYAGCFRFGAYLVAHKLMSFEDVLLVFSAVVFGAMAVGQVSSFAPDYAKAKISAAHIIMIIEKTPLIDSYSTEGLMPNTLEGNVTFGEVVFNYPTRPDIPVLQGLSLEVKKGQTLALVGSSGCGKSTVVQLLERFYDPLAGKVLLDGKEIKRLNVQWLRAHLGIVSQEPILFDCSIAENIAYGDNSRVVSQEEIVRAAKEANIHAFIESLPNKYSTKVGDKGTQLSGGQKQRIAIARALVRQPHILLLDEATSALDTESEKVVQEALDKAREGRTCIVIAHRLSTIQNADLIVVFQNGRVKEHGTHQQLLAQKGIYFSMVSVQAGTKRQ

- Activity: substrate [+]
Compound: CC(C)(C)c1cnc(CSc2cnc(NC(=O)C3CCNCC3)s2)o1 [BMS-387032]
